# Article PMC7180728, “Novel Anthraquinone Compounds Inhibit Colon Cancer Cell Proliferation via the Reactive Oxygen Species/JNK Pathway” (Molecules, 2020)
# Legend:
# Type in all cases: cell-based, human
# [1] = tested on: HCT116 cells; test: MTT cell viability with or without zVAD-FMK; settings: Homo sapiens, HCT-116, 8a 20 μg/mL alone, 24 h
# Description: Caspases represent a key molecular group in the regulation of apoptosis. In caspases, there is an upstream and downstream relationship between the initiator of apoptosis and executioner. Caspase 3 is one of the key executers of apoptosis, as it is either partially or totally responsible for the proteolytic cleavage of many key proteins. For example, when caspase 9 is activated, it activates caspase 3, which ultimately triggers cell apoptosis. After detecting the expression of the corresponding Bcl-2 family proteins after 8a treatment by western blotting, we went on to detect the expression levels of PARP, caspase 9, cleaved caspase 9, caspase 3, and cleaved caspase 3 proteins. […] After 24 h of treatment with zVAD-FMK, cell viability is 93%.
# Figure 7 Effect of 8a on apoptosis-related protein expression. […] PARP, caspase 3, cleaved caspase 3, caspase 9, cleaved caspase 9, Bcl-2, phosphorylated Bcl-2, Bcl-XL, phosphorylated Bcl-xL and Bax were detected by western blot analysis; β-actin was used as a loading control in each lane. Representative data of three independent experiments are shown; (C) and (D) Grayscale analysis of the relative expression of apoptosis-related proteins detected by Western blotting. […] (E) Cells were exposed to 8a (20 μg/mL) and/or zVAD-FMK ([…]) for 24 h, and cell viability was measured by MTT assay. […]
# [2] = tested on: Bcl-2, Bcl-xL and Bax; test: Western blot, Bcl-2 family proteins; settings: HCT116, western blot
# Protocol: In addition, the expression of apoptosis-related proteins after 8a treatment was detected by western blot. Previous studies have shown that the Bcl-2 protein family is one of the most interesting oncogene-related proteins in programmed cell death. Therefore, we analyzed the levels of Bcl-2, Bcl-xL and Bax after 24 h of treatment with different concentrations (0, 10, 20, and 40 μg/mL) 8a. […] Moreover, the phosphorylation levels of Bcl-2 and Bcl-xL increased with increasing 8a concentration.
# The expression of signaling pathway-related proteins was detected by western blot analysis. Cell (1 × 10^6) were plated in 90-mm dishes and treated with 8a for 24 h. The cells were treated with NAC in the same way as in step 4.7. Resuspend the cells in Buffer A (1 mM EDTA, 1 mM PMSF, 0.28 μg/mL apotinin, 50 μg/mL leupeptin, 7 μg/mL pepstain A) and transferred to a 1 mL glass homogenizer and pull up and down 30 times in an ice bath. Cells were collected and centrifuged (1000 g × 10 min, 4 °C). The obtained supernatant and precipitate were the crude cytoplasm and mitochondria, respectively. The cytosolic fraction was transferred to an ultra-ion tube and centrifuged (100,000g × 1 hr, 4 °C), and the resulting supernatant was the purified cytosolic fraction. The mitochondrial pellet was resuspended in Buffer B (1mM EGTA, 1mM PMSF, 0.28 μg/mL apotinin, 50 μg/mL leupeptin, 7 μg/mL pepstain A), centrifuged (10,000g × 10 min, 4 °C), and repeated 3 times. The mitochondria pellet was lysed in cell lysate buffer (1% NP-40, 2 μg/mL aprotinin, 2 μg/mL leupeptin, 1mM EDTA, 1mM Na vanadate). Protein concentrations in the supernatant were determined by using a Minbio BCA protein assay kit. Protein were separated by SDS-PAGE and transferred to a PVDF membrane. The membrane was blocked, and incubated with primary detection antibodies overnight at 4 °C. After washing three times with TBS-T, the membranes were incubated with the secondary detection antibody. […]
# [3] = tested on: cytochrome c; test: Western blot, cytochrome c in cytoplasm and mitochondria; settings: 10 or 20 μg/mL, 24 h, HCT116, western blot
# Protocol: Decreased mitochondrial membrane potential is a hallmark of early cell apoptosis, and a decrease in mitochondrial membrane potential leads to the release of certain mitochondrial proteins, such as cytochrome c, which mediate apoptosis. Therefore, we examined changes in mitochondrial membrane potential by flow cytometry. HCT116 cells were treated with 8a (10 or 20 μg/mL) for 24 h and then stained with 2 μg/mL JC-1 for 30 min prior to flow cytometric analysis. Green /orange fluorescence ratio of JC-1, compare with control, is 200% and 494.4%, respectively (Figure 8E,F). […] During apoptosis, mitochondrial cytochrome C is released into the cytoplasm and triggers the activation cascade of caspase. HCT116 cells were collected after 8a treatment, cytoplasmic protein and mitochondrial protein were extracted. The levels of cytochrome c in the cytoplasm and mitochondria were detected by Western blotting. After treatment of HCT116 cells with 8a (10 or 20 μg/mL) for 24 h, cytoplasmic levels of cytochrome c increased, while the levels in the mitochondria decreased.
# The expression of signaling pathway-related proteins was detected by western blot analysis. Cell (1 × 10^6) were plated in 90-mm dishes and treated with 8a for 24 h. The cells were treated with NAC in the same way as in step 4.7. […] Protein concentrations in the supernatant were determined by using a Minbio BCA protein assay kit. […]
compound,measurement,setting,value
"CC(C)CC(NC(=O)c1ccc2c(c1[N+](=O)[O-])C(=O)c1ccccc1C2=O)C(=O)O (stereo not drawn) [Compound 8a, N-[(9,10-dihydro-1-nitro-9,10-dioxo-2-anthracenyl)carbonyl-leucine]]",viability at 20 µg/mL,[1],38%
same,Bax expression,"[2]; 0, 10, 20, 40 μg/mL, 24 h",increased
same,levels of Bcl-2 and Bcl-xL,"[2]; 0, 10, 20, 40 μg/mL, 24 h",gradually decreased
same,phosphorylation levels of Bcl-2 and Bcl-xL,[2]; with increasing 8a concentration,increased
same,cytochrome c levels in the mitochondria,[3],decreased
same,cytoplasmic levels of cytochrome c,[3],increased
